# Assay results from patent US20100184803A1, “Treatment of Lysosomal Storage Diseases” (priority 2007, published 2010).
# “Also recorded” adds a separate entry of the source.
# Experiments:
# UCH-L1 [1] = experiment: Total amount and turnover of UCH-L1 in SH-SY5Y cells (pulse-chase, not shown); type: cell-based
# UCH-L1 [2] = experiment: Membrane association of UCH-L1 in SH-SY5Y cells (membrane fractionation, 2D electrophoresis, Western blotting); type: cell-based; details: compared to cells treated with DMSO
# Description: Membrane fractionation: Cells were harvested by scraping and washed with PBS. Cell pellet was suspended in lysis buffer (50 mM Tris-HCl, 1 mM EDTA) supplemented with protease inhibitor cocktail (Sigma) and homogenized by passing through 26G needles 10 times. Suspension was clarified by spinning at 600 g for 5 minutes. Clarified suspension was ultracentrifuged at 100,000 g for 2 hours and separated into membrane and cytosol. Membrane fraction was washed with washing buffer (50 mM Tris-HCl, 1 mM EDTA 1 M NaCl), and pelleted each time with bench-top centrifuge.
# 2D electrophoresis: For the isolation of total cellular protein, cultured SH-SY5Y cells maintained as described above were rinsed with ice-cold PBS. Cells were lysed in 1 ml dSDS buffer (50 mM Tris-HCl, pH 8.0 0.1% SDS) supplemented with protease inhibitor cocktail. Lysates were boiled for 3 min, and were treated with Dnase and Rnase as described. […]
# Western Blotting: Following transfer of SDS gels onto NC membrane, all membranes were blocked with 5% non-fat milk in TBST (50 mM Tris-HCl pH 7.4, 150 mM NaCl, 0.1% Tween 20), and incubated with primary antibody overnight with 1% BSA in TBST, washed three times with TBST, and incubated with horseradish peroxidase-conjugated secondary antibody for 1 hour (Promega). Bound antibodies were detected using enhanced chemiluminascence (NEM).
smiles,measurement,setting,value
COC(=O)[C@H](CCSC)NC(=O)c1ccc(NC[C@@H](N)CS)cc1-c1ccccc1 [FTI-277],total amount of UCH-L1,UCH-L1 [1],reduced
same,rate of turnover of UCH-L1,UCH-L1 [1]; pulse-chase experiment not shown,increased
same,amount of cytosolic UCH-L1,UCH-L1 [2],without affecting
same,"amount of membrane bound UCH-L1 (membrane-associated, farnesylated species)",UCH-L1 [2],significant decrease; also recorded: decreased; also recorded: reducing
